In patent US11787785B2 (NOVARTIS AG, priority 2021, dated 2023):

Molecular target: T1, WIZ protein (HiBit-WIZ fusion protein) (Homo sapiens, UniProt O95785+Q96SW2)
T1 construct: expressed in transfected cells
Experiment: Quantification of WIZ protein levels in HiBit tag fusion protein assay (WIZ HiBit assay in 293T cells)
Format: cell-based
Set-up: remaining activity / Dmax: dose or concentration left out as unconfirmed
Settings: for DC50: WIZ HiBit assay in 293T cells, 10-point, 5-fold dose response, highest concentration 25 μM, about 18 hours, read-out: WIZ AC50; for Dmax at 25 µM: 100 − Amax; for Dmax at 25 µM / remaining activity at 25 µM: 293T cells; for remaining activity at 25 µM: DMSO-normalized, curve-fitted percentage of WIZ-HiBit remaining at 25 uM
Outline: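 Luminescence after LgBit complementation quantified remaining HiBit-WIZ in lysates of single-copy stable 293T lines. Cells dosed ~18 h at 37 °C with 10-point, 5-fold dilutions (highest 25 μM); DMSO set to 100%, fitted curve gave % remaining at 25 μM (Amax).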

[1] = HEK-293T, read-out: % degradation of WIZ (100 − Amax)

T1 sequence (O95785 whole entry, the tested form may be a part): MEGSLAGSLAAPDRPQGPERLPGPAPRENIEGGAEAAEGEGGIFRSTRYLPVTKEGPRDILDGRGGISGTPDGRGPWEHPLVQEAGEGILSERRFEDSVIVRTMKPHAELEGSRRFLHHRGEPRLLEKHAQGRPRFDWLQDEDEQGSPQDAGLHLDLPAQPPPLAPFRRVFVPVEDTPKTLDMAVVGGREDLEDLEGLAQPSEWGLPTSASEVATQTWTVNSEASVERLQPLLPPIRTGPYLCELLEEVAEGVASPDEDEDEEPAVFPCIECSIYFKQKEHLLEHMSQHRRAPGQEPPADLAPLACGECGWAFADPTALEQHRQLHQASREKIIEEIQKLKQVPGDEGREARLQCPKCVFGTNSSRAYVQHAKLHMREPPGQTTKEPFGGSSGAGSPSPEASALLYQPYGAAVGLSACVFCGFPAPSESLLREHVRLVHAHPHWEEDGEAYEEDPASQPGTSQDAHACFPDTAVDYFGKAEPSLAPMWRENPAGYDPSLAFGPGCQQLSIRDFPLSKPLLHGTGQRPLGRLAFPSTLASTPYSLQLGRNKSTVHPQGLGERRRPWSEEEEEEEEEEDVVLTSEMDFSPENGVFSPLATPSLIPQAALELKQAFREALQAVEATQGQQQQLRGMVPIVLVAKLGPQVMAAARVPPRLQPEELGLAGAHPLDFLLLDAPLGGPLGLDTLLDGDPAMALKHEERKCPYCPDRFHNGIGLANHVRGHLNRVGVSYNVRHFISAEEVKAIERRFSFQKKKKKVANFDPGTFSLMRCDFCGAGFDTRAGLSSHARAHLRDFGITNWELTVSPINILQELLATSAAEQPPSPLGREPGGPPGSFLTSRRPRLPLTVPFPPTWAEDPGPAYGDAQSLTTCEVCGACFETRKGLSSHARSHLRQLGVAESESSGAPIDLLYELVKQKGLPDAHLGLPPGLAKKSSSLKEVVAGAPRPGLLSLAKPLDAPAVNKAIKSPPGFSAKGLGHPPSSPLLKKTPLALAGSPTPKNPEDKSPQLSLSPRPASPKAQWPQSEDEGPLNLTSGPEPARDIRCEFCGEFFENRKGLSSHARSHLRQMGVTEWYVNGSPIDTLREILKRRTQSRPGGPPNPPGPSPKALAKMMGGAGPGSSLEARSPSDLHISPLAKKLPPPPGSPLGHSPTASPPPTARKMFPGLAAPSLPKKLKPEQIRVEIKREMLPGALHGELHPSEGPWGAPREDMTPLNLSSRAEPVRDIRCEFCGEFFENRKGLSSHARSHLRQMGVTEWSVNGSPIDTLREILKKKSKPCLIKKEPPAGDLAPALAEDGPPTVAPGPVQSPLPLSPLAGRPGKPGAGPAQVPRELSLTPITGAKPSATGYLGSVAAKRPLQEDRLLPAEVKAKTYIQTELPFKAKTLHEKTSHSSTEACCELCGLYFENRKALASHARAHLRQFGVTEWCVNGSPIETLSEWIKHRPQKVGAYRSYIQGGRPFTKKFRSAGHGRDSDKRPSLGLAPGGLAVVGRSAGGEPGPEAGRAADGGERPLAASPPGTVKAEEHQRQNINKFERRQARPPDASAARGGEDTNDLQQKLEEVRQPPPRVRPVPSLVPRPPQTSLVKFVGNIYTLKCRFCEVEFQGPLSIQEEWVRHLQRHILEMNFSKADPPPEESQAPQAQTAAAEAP
T1 sequence (Q96SW2 whole entry, the tested form may be a part): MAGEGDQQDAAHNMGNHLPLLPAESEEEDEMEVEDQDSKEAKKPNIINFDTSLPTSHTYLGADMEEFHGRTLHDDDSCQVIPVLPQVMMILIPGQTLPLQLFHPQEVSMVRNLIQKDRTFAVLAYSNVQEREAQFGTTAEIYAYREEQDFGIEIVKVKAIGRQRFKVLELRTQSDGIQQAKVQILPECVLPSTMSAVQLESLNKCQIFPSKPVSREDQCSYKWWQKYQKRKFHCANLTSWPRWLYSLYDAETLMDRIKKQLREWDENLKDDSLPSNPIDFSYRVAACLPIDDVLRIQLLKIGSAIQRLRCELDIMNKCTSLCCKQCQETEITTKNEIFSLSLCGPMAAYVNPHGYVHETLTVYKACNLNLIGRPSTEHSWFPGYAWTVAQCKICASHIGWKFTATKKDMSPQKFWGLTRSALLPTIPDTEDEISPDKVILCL
T1 sequence (Q16531 whole entry partner, the tested form may be a part): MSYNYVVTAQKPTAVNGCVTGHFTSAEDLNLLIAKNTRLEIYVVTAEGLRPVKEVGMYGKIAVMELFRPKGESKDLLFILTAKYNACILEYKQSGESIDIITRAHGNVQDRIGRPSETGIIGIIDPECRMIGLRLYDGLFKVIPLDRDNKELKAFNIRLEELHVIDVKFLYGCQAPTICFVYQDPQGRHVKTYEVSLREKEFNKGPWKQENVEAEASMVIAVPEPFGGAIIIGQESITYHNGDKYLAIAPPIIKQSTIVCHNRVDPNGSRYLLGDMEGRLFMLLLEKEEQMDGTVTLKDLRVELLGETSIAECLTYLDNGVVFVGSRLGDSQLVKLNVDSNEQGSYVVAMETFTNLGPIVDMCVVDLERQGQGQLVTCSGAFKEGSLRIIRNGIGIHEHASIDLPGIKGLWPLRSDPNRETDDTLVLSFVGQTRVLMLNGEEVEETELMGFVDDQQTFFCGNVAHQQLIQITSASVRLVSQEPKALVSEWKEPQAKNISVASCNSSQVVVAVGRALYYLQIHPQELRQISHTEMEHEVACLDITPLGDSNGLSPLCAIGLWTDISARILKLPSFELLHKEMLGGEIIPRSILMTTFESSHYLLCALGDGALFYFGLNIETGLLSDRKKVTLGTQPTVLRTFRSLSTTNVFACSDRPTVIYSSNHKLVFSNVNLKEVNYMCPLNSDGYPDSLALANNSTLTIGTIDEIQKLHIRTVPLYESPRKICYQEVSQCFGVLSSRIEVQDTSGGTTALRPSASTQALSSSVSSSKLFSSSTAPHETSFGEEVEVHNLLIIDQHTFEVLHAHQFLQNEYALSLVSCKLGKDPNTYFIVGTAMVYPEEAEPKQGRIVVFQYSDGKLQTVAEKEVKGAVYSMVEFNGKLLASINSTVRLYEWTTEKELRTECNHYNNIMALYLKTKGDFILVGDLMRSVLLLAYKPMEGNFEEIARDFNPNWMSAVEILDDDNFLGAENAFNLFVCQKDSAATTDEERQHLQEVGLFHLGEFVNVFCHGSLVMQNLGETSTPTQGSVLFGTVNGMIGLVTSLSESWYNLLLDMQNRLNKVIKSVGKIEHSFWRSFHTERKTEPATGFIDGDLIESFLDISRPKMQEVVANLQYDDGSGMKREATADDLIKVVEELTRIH

| SMILES | DC50 [nM] | Dmax at 25 µM [1] [%] | remaining activity at 25 µM (HEK-293T, read-out: WIZ Amax) [%] | Dmax [1] [%] | remaining activity (HEK-293T, read-out: WIZ Amax) [%] |
| --- | --- | --- | --- | --- | --- |
| C[C@H]1CN(Cc2ccn3ncc(N4CCC(=O)NC4=O)c3c2)CCN1C1CCC1 [Example 329, (S)-1-(5-((4-cyclobutyl-3-methylpiperazin-1-yl)methyl)pyrazolo[1,5-a]pyridin-3-yl)dihydropyrimidine-2,4(1H,3H)-dione] | 166 | – | – | 83 | 17 |
| C[C@H]1CN(Cc2ccn3ncc(N4CCC(=O)NC4=O)c3c2)CCN1C(=O)C1CCCC1 [Example 343, (S)-1-(5-((4-(cyclopentanecarbonyl)-3-methylpiperazin-1-yl)methyl)pyrazolo[1,5-a]pyridin-3-yl)dihydropyrimidine-2,4(1H,3H)-dione] | 495 | 46 | 54 | – | – |
| CC(C)CN1CCN(Cc2ccn3ncc(N4CCC(=O)NC4=O)c3c2)CC1 [Example 186, 1-(5-((4-isobutylpiperazin-1-yl)methyl)pyrazolo[1,5-a]pyridin-3-yl)dihydropyrimidine-2,4(1H,3H)-dione] | 76 | 79 | 21 | – | – |
| O=C1CCN(c2cnn3ccc(CN4CCN5CCC[C@@H]5C4)cc23)C(=O)N1 [Example 261, (R)-1-(5-((hexahydropyrrolo[1,2-a]pyrazin-2(1H)-yl)methyl)pyrazolo[1,5-a]pyridin-3-yl)dihydropyrimidine-2,4(1H,3H)-dione] | 417 | 63 | 37 | – | – |
| O=C1CCN(c2cnn3ccc(CC4CCN(CC5CCCCC5)C4)cc23)C(=O)N1 (stereo not drawn) [Example 128] | 830 | 29 | 71 | – | – |
| O=C1CCN(c2cnn3ccc(CN4CCCN(CC5CCCCC5)CC4)cc23)C(=O)N1 [Example 249, 1-(5-((4-(cyclohexylmethyl)-1,4-diazepan-1-yl)methyl)pyrazolo[1,5-a]pyridin-3-yl)dihydropyrimidine-2,4(1H,3H)-dione] | 300 | 41 | 59 | – | – |
| C[C@H]1CN(Cc2ccn3ncc(N4CCC(=O)NC4=O)c3c2)CCN1C1CCOCC1 [Example 330] | 41 | 82 | 18 | – | – |
| CC(C)CN1CC[C@@H](Cc2ccn3ncc(-n4cc(C5CC5)c(=O)[nH]c4=O)c3c2)C[C@@H]1C [Example 354, 5-cyclopropyl-1-(5-(((2S,4R)-1-isobutyl-2-methylpiperidin-4-yl)methyl)pyrazolo[1,5-a]pyridin-3-yl)pyrimidine-2,4(1H,3H)-dione] | > 25000 | 0 | 100 | – | – |
| CC(C)CN1[C@H](C)CN(Cc2ccn3ncc(N4CCC(=O)NC4=O)c3c2)C[C@@H]1C [Example 257, 1-(5-(((3S,5R)-4-isobutyl-3,5-dimethylpiperazin-1-yl)methyl)pyrazolo[1,5-a]pyridin-3-yl)dihydropyrimidine-2,4(1H,3H)-dione] | 101 | 74 | 26 | – | – |
| C[C@H]1CN(Cc2ccn3ncc(N4CCC(=O)NC4=O)c3c2)CCN1CC1CC2(COC2)C1 [Example 325, (S)-1-(5-((4-((2-oxaspiro[3.3]heptan-6-yl)methyl)-3-methylpiperazin-1-yl)methyl)pyrazolo[1,5-a]pyridin-3-yl)dihydropyrimidine-2,4(1H,3H)-dione] | 47 | 82 | 18 | – | – |
| O=C1CCN(c2cnn3ccc(CC4CCN(C(=O)C5(C(F)(F)F)CC5)CC4)cc23)C(=O)N1 [Example 100] | 755 | 42 | 58 | – | – |
| O=C1CCN(c2cnn3ccc(CN4CCN(CC5(C(F)(F)F)CC5)CC4)cc23)C(=O)N1 [Example 172] | 527 | 42 | 58 | – | – |
| C[C@H]1CN(Cc2ccn3ncc(N4CCC(=O)NC4=O)c3c2)CCN1C(=O)C1CCC1 [Example 344, (S)-1-(5-((4-(cyclobutanecarbonyl)-3-methylpiperazin-1-yl)methyl)pyrazolo[1,5-a]pyridin-3-yl)dihydropyrimidine-2,4(1H,3H)-dione] | 1070 | 35 | 65 | – | – |
| O=C1CCN(c2cnn3ccc(CN4CCCNCC4)cc23)C(=O)N1 [Example 248, 1-(5-((1,4-diazepan-1-yl)methyl)pyrazolo[1,5-a]pyridin-3-yl)dihydropyrimidine-2,4(1H,3H)-dione] | > 25000 | 0 | 100 | – | – |
| O=C1CCN(c2cnn3ccc(CN4C[C@@H]5C[C@H]4CN5Cc4cccnc4)cc23)C(=O)N1 [Example 237, 1-(5-(((1S,4S)-5-(pyridin-3-ylmethyl)-2,5-diazabicyclo[2.2.1]heptan-2-yl)methyl)pyrazolo[1,5-a]pyridin-3-yl)dihydropyrimidine-2,4(1H,3H)-dione] | > 25000 | 6 | 94 | – | – |
| CCC(C)S(=O)(=O)N1CCC(Cc2ccn3ncc(N4CCC(=O)NC4=O)c3c2)CC1 (stereo not drawn) [Example 86] | 27 | 80 | 20 | – | – |
| O=C1CCN(c2cnn3ccc(CN4CCN(CCC5CCCCC5)CC4)cc23)C(=O)N1 [Example 187, 1-(5-((4-(2-cyclohexylethyl)piperazin-1-yl)methyl)pyrazolo[1,5-a]pyridin-3-yl)dihydropyrimidine-2,4(1H,3H)-dione] | 20 | 80 | 20 | – | – |
| CCS(=O)(=O)N1CCN(Cc2ccn3ncc(N4CCC(=O)NC4=O)c3c2)C[C@@H]1C [Example 339, (S)-1-(5-((4-(ethylsulfonyl)-3-methylpiperazin-1-yl)methyl)pyrazolo[1,5-a]pyridin-3-yl)dihydropyrimidine-2,4(1H,3H)-dione] | 715 | 35 | 65 | – | – |
| C[C@H]1CN(Cc2ccn3ncc(N4CCC(=O)NC4=O)c3c2)CCN1C1CC2(C1)CN(C)C2 [Example 336, (S)-1-(5-((3-methyl-4-(2-methyl-2-azaspiro[3.3]heptan-6-yl)piperazin-1-yl)methyl)pyrazolo[1,5-a]pyridin-3-yl)dihydropyrimidine-2,4(1H,3H)-dione] | 12000 | 76 | 24 | – | – |

Now from value to molecule, other results behind:

| DC50 [nM] | Dmax at 25 µM [1] [%] | remaining activity at 25 µM (HEK-293T, read-out: WIZ Amax) [%] | SMILES | Dmax [1] [%] | remaining activity (HEK-293T, read-out: WIZ Amax) [%] |
| --- | --- | --- | --- | --- | --- |
| 112 | 71 | 29 | O=C1CCN(c2cnn3ccc(CC4CCN(Cc5ccccc5F)CC4)cc23)C(=O)N1 [Example 38, 1-(5-((1-(2-fluorobenzyl)piperidin-4-yl)methyl)pyrazolo[1,5-a]pyridin-3-yl)dihydropyrimidine-2,4(1H,3H)-dione] | – | – |
| 1 | 81 | 19 | O=C1CCN(c2cnn3ccc(CC4CCN(C5CCC5)CC4)cc23)C(=O)N1 [Example 282, 1-(5-((1-cyclobutylpiperidin-4-yl)methyl)pyrazolo[1,5-a]pyridin-3-yl)dihydropyrimidine-2,4(1H,3H)-dione] | – | – |
| > 25000 | 36 | 64 | O=C1CCN(c2cnn3ccc(CC4CCN(CC5CCNCC5)CC4)cc23)C(=O)N1 [Example 63] | – | – |
| 20 | 81 | 19 | CC(C)CCN1CCC(Cc2ccn3ncc(N4CCC(=O)NC4=O)c3c2)CC1 [Example 19, 1-(5-((1-isopentylpiperidin-4-yl)methyl)pyrazolo[1,5-a]pyridin-3-yl)dihydropyrimidine-2,4(1H,3H)-dione] | – | – |
| 297 | 76 | 24 | CC(c1ccccc1)N1CCC(Cc2ccn3ncc(N4CCC(=O)NC4=O)c3c2)CC1 (stereo not drawn) [Example 26, 1-(5-((1-(1-phenylethyl)piperidin-4-yl)methyl)pyrazolo[1,5-a]pyridin-3-yl)dihydropyrimidine-2,4(1H,3H)-dione] | – | – |
| 286 | 57 | 43 | Cc1ccccc1CN1CCN(Cc2ccn3ncc(N4CCC(=O)NC4=O)c3c2)CC1 [Example 167] | – | – |
| 232 | 74 | 26 | O=C1CCN(c2cnn3ccc(CC4CCN(Cc5ccccc5)CC4)cc23)C(=O)N1 [Example 29, 1-(5-((1-benzylpiperidin-4-yl)methyl)pyrazolo[1,5-a]pyridin-3-yl)dihydropyrimidine-2,4(1H,3H)-dione] | – | – |
| 23 | 86 | 14 | O=C1CCN(c2cnn3ccc(CC4CCN(CC5CCCOC5)CC4)cc23)C(=O)N1 (stereo not drawn) [Example 7, 1-(5-((1-((tetrahydro-2H-pyran-3-yl)methyl)piperidin-4-yl)methyl)pyrazolo[1,5-a]pyridin-3-yl)dihydropyrimidine-2,4(1H,3H)-dione] | – | – |
| 98 | 58 | 42 | O=C1CCN(c2cnn3ccc(CC4CCN(Cc5ccccc5Cl)CC4)cc23)C(=O)N1 [Example 59, 1-(5-((1-(2-chlorobenzyl)piperidin-4-yl)methyl)pyrazolo[1,5-a]pyridin-3-yl)dihydropyrimidine-2,4(1H,3H)-dione] | – | – |
| 26 | 70 | 30 | Cc1c(F)cccc1CN1CCC(Cc2ccn3ncc(N4CCC(=O)NC4=O)c3c2)CC1 [Example 42, 1-(5-((1-(3-fluoro-2-methylbenzyl)piperidin-4-yl)methyl)pyrazolo[1,5-a]pyridin-3-yl)dihydropyrimidine-2,4(1H,3H)-dione] | – | – |
